In the supplement of paper PMC10307832:

Key:
Assay in all cases: relative viability (nuclei count vs DMSO), 5 days (fraction); higher = more cells survive
[1] = compound: COc1cc2nc(N3CCCN(C)CC3)nc(NC3CCN(Cc4ccccc4)CC3)c2cc1OC + CS(=O)(=O)N1CCN(Cc2cc3nc(-c4cccc5[nH]ncc45)nc(N4CCOCC4)c3s2)CC1 [Pictilisib] (partner 1 µM)
How it was run: (§1)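 Five library-drug doses in √10 steps were combined with a fixed anchor-drug dose, or a single drug was given alone, by pin tool to lung cancer cell lines in 1536-well plates the day after seeding. Nuclei were stained and counted after 5 days. Relative viability is the nuclei count in treated wells over that in vehicle wells, taken as the median of duplicate plates.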

[2] = compound: COc1cc2nc(N3CCCN(C)CC3)nc(NC3CCN(Cc4ccccc4)CC3)c2cc1OC + Nc1ncn([C@H]2C[C@H](O)[C@@H](CO)O2)c(=O)n1 [Decitabine] (partner 2 µM)
How it was run: as §1

[3] = compound: Cc1cc([C@@H](C)Nc2ccccc2C(=O)O)c2nc(N3CCOCC3)cc(=O)n2c1 [AZD6482] + CC(=O)Nc1cccc(-n2c(=O)n(C3CC3)c(=O)c3c(Nc4ccc(I)cc4F)n(C)c(=O)c(C)c32)c1 [Trametinib] (partner 0.02 µM)
How it was run: as §1

[4] = compound: Cc1cc([C@@H](C)Nc2ccccc2C(=O)O)c2nc(N3CCOCC3)cc(=O)n2c1 [AZD6482] + NC(=O)Nc1cc(-c2cccc(F)c2)sc1C(=O)N[C@H]1CCCNC1 [AZD7762] (partner 0.2 µM)
How it was run: as §1

Cell Line | relative viability ([1]; first compound 0.2 µM) | relative viability ([1]; first compound 0.6325 µM) | relative viability ([1]; first compound 2 µM) | relative viability ([1]; first compound 6.325 µM) | relative viability ([2]; first compound 0.2 µM) | relative viability ([2]; first compound 0.6325 µM) | relative viability ([2]; first compound 2 µM) | relative viability ([2]; first compound 6.325 µM) | relative viability ([3]; first compound 0.08 µM) | relative viability ([3]; first compound 0.253 µM) | relative viability ([3]; first compound 0.8 µM) | relative viability ([3]; first compound 2.53 µM) | relative viability ([3]; first compound 8 µM) | relative viability ([4]; first compound 0.08 µM) | relative viability ([4]; first compound 0.253 µM) | relative viability ([4]; first compound 0.8 µM) | relative viability ([4]; first compound 2.53 µM) | relative viability ([4]; first compound 8 µM)
LXF-289 | 0.8 | 0.778 | 0.804 | 0.762 | 0.396 | 0.365 | 0.418 | 0.393 | 0.681 | 0.77 | 0.801 | 0.717 | 0.609 | 1.11 | 1.13 | 1.26 | 0.982 | 0.956
NCI-H23 | 0.438 | 0.491 | 0.574 | 0.362 | 0.307 | 0.334 | 0.316 | 0.322 | 0.33 | 0.34 | 0.326 | 0.283 | 0.247 | 0.317 | 0.223 | 0.236 | 0.201 | 0.219
NCI-H322M | 0.489 | 0.604 | 0.486 | 0.548 | 0.717 | 0.708 | 0.768 | 0.708 | 0.51 | 0.534 | 0.58 | 0.452 | 0.443 | 0.647 | 0.623 | 0.587 | 0.421 | 0.405
NCI-H358 | 0.368 | 0.422 | 0.348 | 0.269 | 0.203 | 0.2 | 0.2 | 0.158 | 0.133 | 0.131 | 0.12 | 0.117 | 0.113 | 0.545 | 0.487 | 0.549 | 0.302 | 0.439
NCI-H441 | 0.407 |  | 0.48 | 0.38 | 0.239 | 0.225 | 0.3 | 0.206 | 0.422 | 0.435 | 0.39 |  | 0.312 | 1.02 | 1.18 | 1.36 |  | 1.19
NCI-H460 | 0.306 | 0.513 | 0.359 | 0.332 | 0.484 | 0.449 | 0.431 | 0.389 | 0.138 | 0.106 | 0.146 | 0.0746 | 0.126 | 0.618 | 0.674 | 0.791 | 0.459 | 0.568
NCI-H596 | 0.396 | 0.432 | 0.392 | 0.359 | 1.13 | 0.934 | 0.958 | 1.03 | 0.633 | 0.817 | 0.774 | 0.589 | 0.59 | 0.874 | 1.05 | 1.07 | 0.925 | 0.966
NCI-H647 |  | 0.583 | 0.567 | 0.254 | 0.421 | 0.356 | 0.394 | 0.28 | 0.32 | 0.367 | 0.333 | 0.254 | 0.209 | 0.365 | 0.445 | 0.495 | 0.191 | 0.235
NCI-H650 | 0.959 | 0.707 | 1.03 | 0.562 | 0.323 | 0.307 | 0.392 | 0.279 | 0.958 | 0.906 | 0.805 | 0.663 | 0.711 | 1.06 | 0.918 | 1.12 | 0.77 | 0.619
NCI-H727 | 0.391 | 0.394 | 0.32 | 0.346 | 0.756 | 1.02 | 0.865 | 0.726 | 0.382 | 0.358 | 0.394 |  | 0.386 | 0.684 | 0.596 | 0.596 |  | 0.578
NCI-H838 | 0.477 | 0.598 | 0.479 | 0.424 | 0.45 | 0.466 | 0.508 | 0.474 | 0.419 | 0.494 | 0.451 | 0.316 | 0.336 | 0.936 | 0.902 | 0.934 | 0.78 | 0.759
NCI-H1355 | 0.434 | 0.442 | 0.472 | 0.476 | 0.349 | 0.343 | 0.343 | 0.375 | 0.345 | 0.374 | 0.37 | 0.339 | 0.305 | 0.642 | 0.755 | 0.745 | 0.681 | 0.65
NCI-H1395 | 0.596 | 0.589 | 0.647 | 0.486 | 0.712 | 0.71 | 0.743 | 0.706 | 0.949 | 0.8 | 0.785 | 0.522 | 0.627 | 0.393 | 0.393 | 0.44 | 0.405 | 0.411
NCI-H1437 | 0.436 | 0.496 | 0.49 | 0.323 | 0.61 | 0.522 | 0.584 | 0.577 | 0.506 | 0.451 | 0.473 | 0.298 | 0.282 | 1.16 | 1.07 | 1.16 | 1.03 | 0.836
NCI-H1651 | 0.638 | 0.591 | 0.73 | 0.462 | 0.587 | 0.598 | 0.639 | 0.617 | 0.767 | 0.7 | 0.835 | 0.691 | 0.68 | 0.457 | 0.379 | 0.456 | 0.391 | 0.379
NCI-H1666 | 0.547 | 0.424 | 0.579 | 0.275 | 0.597 | 0.805 | 0.658 | 0.729 | 0.766 | 0.944 | 0.808 | 0.81 | 0.835 | 0.79 | 0.776 | 0.958 | 0.835 | 0.767
